Measured values taken from PubChem BioAssay AID1845199 (Molecular Pharmacology Branch, DTP, NCI, 2023).

System: 556581-035-R-J1 tumor spheroid viability, % test/control
Assay: Anticancer human tumor 556581-035-R-J1 patient-derived ovarian carcinoma cell line growth inhibition
Conditions: spheroids with HUVEC and MSC; for IC50: curve of first compound; for viability, T/C: stronger effect = lower value; active = viability on the fitted dose curve at most 10% of control; inactive = the rest
How it was run: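 Complex tumor spheroids combined malignant cells with endothelial cells and mesenchymal stem cells. DNA-damaging drugs and DNA repair inhibitors were tested alone and in combination, at half-log dilutions down from clinical Cmax (top 10 microM if Cmax unknown), 0.25% DMSO final.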

[1] = second compound 1 µM, first compound 0.00949 µM
[2] = second compound 1 µM, first compound 0.03 µM
[3] = second compound 1 µM, first compound 0.0949 µM
[4] = second compound 1 µM, first compound 0.3 µM
[5] = second compound 1 µM, first compound 0.949 µM
[6] = second compound 1 µM, first compound 3 µM
[7] = second compound 3.16 µM, first compound 0.00949 µM
[8] = second compound 3.16 µM, first compound 0.03 µM
[9] = second compound 3.16 µM, first compound 0.0949 µM
[10] = second compound 3.16 µM, first compound 0.3 µM
[11] = second compound 3.16 µM, first compound 0.949 µM
[12] = second compound 3.16 µM, first compound 3 µM
[13] = second compound 10 µM, first compound 0.00949 µM
[14] = second compound 10 µM, first compound 0.03 µM
[15] = second compound 10 µM, first compound 0.0949 µM
[16] = second compound 10 µM, first compound 0.3 µM
[17] = second compound 10 µM, first compound 0.949 µM
[18] = second compound 10 µM, first compound 3 µM
[19] = second compound 31.6 µM, first compound 0.00949 µM
[20] = second compound 31.6 µM, first compound 0.03 µM
[21] = second compound 31.6 µM, first compound 0.0949 µM
[22] = second compound 31.6 µM, first compound 0.3 µM
[23] = second compound 31.6 µM, first compound 0.949 µM
[24] = second compound 31.6 µM, first compound 3 µM
[25] = second compound 100 µM, first compound 0.00949 µM
[26] = second compound 100 µM, first compound 0.03 µM
[27] = second compound 100 µM, first compound 0.0949 µM
[28] = second compound 100 µM, first compound 0.3 µM
[29] = second compound 100 µM, first compound 0.949 µM
[30] = second compound 100 µM, first compound 3 µM
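Note: spheroids exposed to compounds for 7 days before viability read.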

CNCc1ccc(-c2cc(-c3nc(-c4ccc(S(=O)(=O)C(C)C)cc4)cnc3N)on2)cc1 + Cn1nnc2c(C(N)=O)ncn2c1=O
953 nM: IC50 (second compound 100 µM)
1380 nM: IC50 (second compound 10 µM) | IC50 (second compound 31.6 µM)
inactive: viability, T/C [1] 101% | viability, T/C [2] 108% | viability, T/C [3] 109% | viability, T/C [4] 104% | viability, T/C [5] 80.2% | viability, T/C [6] 18.6% | viability, T/C [7] 104% | viability, T/C [8] 117% | viability, T/C [9] 105% | viability, T/C [10] 106% | viability, T/C [11] 72.6% | viability, T/C [12] 20% | viability, T/C [13] 106% | viability, T/C [14] 109% | viability, T/C [15] 110% | viability, T/C [16] 105% | viability, T/C [17] 67.3% | viability, T/C [18] 15.3% | viability, T/C [19] 113% | viability, T/C [20] 113% | viability, T/C [21] 110% | viability, T/C [22] 98.4% | viability, T/C [23] 66.2% | viability, T/C [24] 16.5% | viability, T/C [25] 111% | viability, T/C [26] 102% | viability, T/C [27] 120% | viability, T/C [28] 98.2% | viability, T/C [29] 50.5% | viability, T/C [30] 11.6%
1670 nM: IC50 (second compound 1 µM)
1560 nM: IC50 (second compound 3.16 µM)

Cc1sc2c(c1C)C(c1ccc(Cl)cc1)=NC(CC(=O)Nc1ccc(O)cc1)c1nnc(C)n1-2 (stereo not given) + Cn1nnc2c(C(N)=O)ncn2c1=O
2700 nM: IC50 (second compound 100 µM)
inactive: viability, T/C [1] 112% | viability, T/C [2] 95.6% | viability, T/C [3] 82% | viability, T/C [4] 76.4% | viability, T/C [5] 68% | viability, T/C [6] 64.5% | viability, T/C [7] 101% | viability, T/C [8] 97.6% | viability, T/C [9] 84.8% | viability, T/C [10] 75.6% | viability, T/C [11] 65.5% | viability, T/C [12] 61.2% | viability, T/C [13] 98% | viability, T/C [14] 94.6% | viability, T/C [15] 82.6% | viability, T/C [16] 72.6% | viability, T/C [17] 68.1% | viability, T/C [18] 57.5% | viability, T/C [19] 96.9% | viability, T/C [20] 93.9% | viability, T/C [21] 82.2% | viability, T/C [22] 70.7% | viability, T/C [23] 65.1% | viability, T/C [24] 54.3% | viability, T/C [25] 99.5% | viability, T/C [26] 99.2% | viability, T/C [27] 79.9% | viability, T/C [28] 71.5% | viability, T/C [29] 59.1% | viability, T/C [30] 48.5%
> 3000 nM: IC50 (second compound 1 µM) | IC50 (second compound 3.16 µM) | IC50 (second compound 10 µM) | IC50 (second compound 31.6 µM)

Cn1ncnc1[C@H]1c2n[nH]c(=O)c3cc(F)cc(c23)N[C@@H]1c1ccc(F)cc1 + Cn1nnc2c(C(N)=O)ncn2c1=O
inactive: viability, T/C [1] 99.5% | viability, T/C [2] 93.1% | viability, T/C [3] 87.3% | viability, T/C [4] 75.5% | viability, T/C [5] 67.6% | viability, T/C [6] 51.1% | viability, T/C [7] 102% | viability, T/C [8] 89.7% | viability, T/C [9] 87.7% | viability, T/C [10] 73.9% | viability, T/C [11] 67.8% | viability, T/C [12] 50.2% | viability, T/C [13] 94% | viability, T/C [14] 88.7% | viability, T/C [15] 85.8% | viability, T/C [16] 76.6% | viability, T/C [17] 66% | viability, T/C [18] 52.2% | viability, T/C [19] 86.4% | viability, T/C [20] 74.4% | viability, T/C [21] 77.9% | viability, T/C [22] 68.3% | viability, T/C [23] 62.3% | viability, T/C [24] 43% | viability, T/C [25] 74.4% | viability, T/C [26] 71.8% | viability, T/C [27] 70.4% | viability, T/C [28] 65.9% | viability, T/C [29] 54.7% | viability, T/C [30] 34%
1240 nM: IC50 (second compound 100 µM)
1950 nM: IC50 (second compound 31.6 µM)
> 3000 nM: IC50 (second compound 1 µM) | IC50 (second compound 3.16 µM) | IC50 (second compound 10 µM)
